The values that follow come from patent publication US20200123147A1, “THIAZOLE COMPOUNDS USEFUL AS PRMT5 INHIBITORS” (Bayer Aktiengesellschaft, priority 2017, published 2020).

For this assay, the target named is T1, PRMT5:MEP50 protein complex (Homo sapiens, UniProt O14744).
T1 construct: FLAG (N); made in house; host or cells: Hi5 insect cells
Put plainly: In vitro assay 1: PRMT5 SPA assay ("EAA"). The class given is biochemical. Particulars: scintillation proximity assay, methylation of biotinylated H4(1-24) peptide, 3H-SAM, 60 min at 22° C. An excerpt:
In Vitro Assay 1: PRMT5 SPA Assay (“EAA”)
PRMT5 inhibitory activities of the compounds described in the present invention were quantified using a scintillation proximity assay (SPA) which measures methylation by the enzyme of a synthetic, biotinylated peptide corresponding to the N-terminal sequence of Histone H4 (a.a. 1-24). The peptide of sequence […]-K(Btn)-amide is commercially available (e.g. from Biosyntan) and will be herein referred to as H4(1-24). The PRMT5:MEP50 protein complex used in the assay was produced in house following standard protocols. Briefly, full length PRMT5 and MEP50 constructs respectively tagged with N-terminal FLAG and 6× His sequences were co-expressed in Hi5 insect cells, and the recombinant protein complex was purified by FLAG affinity and size exclusion chromatography.
In a typical assay 11 different concentrations of each compound (0.1 nM, 0.33 nM, 1.1 nM, 3.8 nM, 13 nM, 44 nM, 0.15 μM, 0.51 μM, 1.7 μM, 5.9 μM and 20 μM) were tested in duplicate within the same microtiter plate. To this end, 100-fold concentrated compound solutions (in DMSO) were previously prepared by serial dilution (1:3.4) of 2 mM stocks in a clear low volume 384-well source microtiter plate (Greiner Bio-One), from which 50 nl of compounds were transferred into a white low volume test microtiter plate from the same supplier. Subsequently, 2.5 μL PRMT5 in aqueous assay buffer [20 mM Bicine pH 8.0 (Alfa Aesar), 7.5 mM Tris(2-carboxyethyl) phosphine hydrochloride (TCEP, Sigma), 0.1% (w/v) bovine gamma globuline (BGG, Sigma), 0.002% (v/v) Tween-20 (Sigma)] were added to the compounds in the test plate to a final enzyme concentration of—typically—7.5 nM (this parameter was adjusted depending on the activity of the enzyme lot in order to be within the linear dynamic range of the assay). The samples were then incubated for 15 min at 22° C. to allow pre-equilibration of the putative enzyme-inhibitor complexes before the start of the methylation reaction, which was initiated by the addition of 2.5 μL 2-fold concentrated solution (in assay buffer) of “cold” S-Adenosyl-L-Methionine (SAM, Sigma, final concentration: 0.5 μM), tritiated 3H-SAM (Perkin Elmer, final concentration: 0.5 μM) and H4(1-24) peptide substrate (final concentration: 0.06 μM). The resulting mixture (5 μL final volume) was shortly centrifuged (2 min., 1500 rpm) and incubated at 22° C. during 60 min. Thereupon the reaction was stopped by adding 3 μL of Streptavidin PS SPA imaging beads (Perkin Elmer, final concentration of 0.375 μg/μL) and “cold” SAM (AK Scientific, 250 μM final concentration) for non-specific binding reduction. Plates containing the stopped reaction were sealed with transparent adhesive foil (Perkin Elmer), centrifuged (2 min., 1500 rpm), and further incubated either 1 h at 22° C. or overnight at 4° C. in order to allow the SPA signals to develop. Subsequently, the amount of product was evaluated by measuring the energy transfer from the β-particles emitted by the 3H-labeled substrate to the Europium scintillator co-polymerized in the polystyrene matrix of the PS imaging beads, using the standard settings for this purpose of a Viewlux (Perkin-Elmer) CCD plate imaging device (emission filter 613/55 (IFP).
The resulting scintillation counts were taken as indicator for the amount of methylated peptide per well. The data were normalised using two sets of control wells (typically 16 each) for high—(=enzyme reaction with DMSO instead of test compound=0%=minimum inhibition) and low—(=all assay components without enzyme=100%=maximum inhibition) PRMT5 activity. IC50 values were calculated by fitting the normalized inhibition data to a 4-parameter logistic equation using the “Screener” analysis software from Genedata.

T1 sequence (O14744 whole entry, species assumed): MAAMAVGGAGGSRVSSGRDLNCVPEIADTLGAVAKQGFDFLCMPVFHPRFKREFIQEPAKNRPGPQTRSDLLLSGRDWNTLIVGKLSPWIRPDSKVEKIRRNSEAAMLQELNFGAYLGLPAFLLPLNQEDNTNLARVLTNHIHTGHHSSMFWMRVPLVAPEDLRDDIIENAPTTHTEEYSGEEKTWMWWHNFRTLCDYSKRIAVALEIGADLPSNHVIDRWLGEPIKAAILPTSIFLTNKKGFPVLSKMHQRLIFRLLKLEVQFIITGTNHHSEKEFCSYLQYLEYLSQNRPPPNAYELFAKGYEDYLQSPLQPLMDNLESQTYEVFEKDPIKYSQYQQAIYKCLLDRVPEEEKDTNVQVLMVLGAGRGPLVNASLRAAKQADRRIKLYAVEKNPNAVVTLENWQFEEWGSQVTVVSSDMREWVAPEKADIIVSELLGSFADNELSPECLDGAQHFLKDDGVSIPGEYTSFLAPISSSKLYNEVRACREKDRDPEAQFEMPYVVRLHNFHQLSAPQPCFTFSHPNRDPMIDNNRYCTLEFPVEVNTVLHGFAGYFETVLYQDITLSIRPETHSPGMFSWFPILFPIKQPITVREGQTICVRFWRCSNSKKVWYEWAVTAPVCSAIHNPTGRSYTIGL
T1 sequence (Q9BQA1 whole entry partner, species assumed): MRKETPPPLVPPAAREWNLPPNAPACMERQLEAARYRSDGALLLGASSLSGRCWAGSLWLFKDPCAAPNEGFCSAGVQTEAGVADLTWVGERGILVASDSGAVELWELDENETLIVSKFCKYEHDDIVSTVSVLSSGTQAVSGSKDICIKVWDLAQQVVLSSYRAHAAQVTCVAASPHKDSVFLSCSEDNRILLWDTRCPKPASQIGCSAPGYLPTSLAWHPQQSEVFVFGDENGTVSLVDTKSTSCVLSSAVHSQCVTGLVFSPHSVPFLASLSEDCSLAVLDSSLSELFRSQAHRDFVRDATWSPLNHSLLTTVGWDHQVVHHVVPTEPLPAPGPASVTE

As for `CC(C)(C)c1cc(NC(=O)c2csc(NCC3CCCO3)n2)no1` (racemic) [Example 49, (rac)-N-(5-tert-Butyl-1,2-oxazol-3-yl)-2-{[-tetrahydrofuran-2-ylmethyl]amino}-1,3-thiazole-4-carboxamide], half-maximal inhibition (IC50) required 5680 nM.
With `CC(C)(C)c1cc(NC(=O)c2csc(Nc3ccc(F)cn3)n2)no1` [Example 6, N-(5-tert-Butyl-1,2-oxazol-3-yl)-2-[(5-fluoropyridin-2-yl)amino]-1,3-thiazole-4-carboxamide], the 50% inhibitory concentration (IC50) (usually the concentration that inhibits the measured activity by half) amounted to 118 nM.
As for `COc1ccc2[nH]c(NC(=O)c3csc(Nc4ccc(Cl)cc4)n3)nc2c1` [Example 9, 2-[(4-Chlorophenyl)amino]-N-(5-methoxy-1H-benzimidazol-2-yl)-1,3-thiazole-4-carboxamide], the figure is 239 nM.
For `O=C(Nc1nccs1)c1csc(Nc2ccc(Cl)cc2)n1` [Example 11, 2-[(4-Chlorophenyl)amino]-N-(1,3-thiazol-2-yl)-1,3-thiazole-4-carboxamide] the value was 280 nM; for `CC(C)(C)c1cc(NC(=O)c2csc(Nc3ccccc3)n2)n[nH]1` [Example 16, N-(5-tert-Butyl-1H-pyrazol-3-yl)-2-(phenylamino)-1,3-thiazole-4-carboxamide], 438 nM; for `CC(C)(C)c1cc(NC(=O)c2csc(Nc3ccc(C#N)cc3)n2)no1` [Example 24, N-(5-tert-Butyl-1,2-oxazol-3-yl)-2-[(4-cyanophenyl)amino]-1,3-thiazole-4-carboxamide], 2540 nM.
`CC(C)(C)c1cc(NC(=O)c2csc(Nc3ccccc3F)n2)no1` [Example 25, N-(5-tert-Butyl-1,2-oxazol-3-yl)-2-[(2-fluorophenyl)amino]-1,3-thiazole-4-carboxamide] showed an IC50 of 2490 nM.
As for `O=C(NCCCN1CCc2ccccc2C1)c1csc(Nc2ccc(Cl)cc2)n1` [Example 26, 2-[(4-Chlorophenyl)amino]-N-[3-(3,4-dihydroisoquinolin-2(1H)-yl)propyl]-1,3-thiazole-4-carboxamide], the figure is 7850 nM.
For `O=C(c1csc(Nc2ccc(Cl)cc2)n1)N1CCC(N2CCc3ccccc3C2)CC1` [Example 27, {2-[(4-Chlorophenyl)amino]-1,3-thiazol-4-yl}{4-[3,4-dihydroisoquinolin-2(1H)-yl]piperidin-1-yl}methanone] the value was 7610 nM; for `O=C(Nc1ccn(CCO)n1)c1csc(Nc2ccccc2)n1` [Example 28, N-[1-(2-Hydroxyethyl)-1H-pyrazol-3-yl]-2-(phenylamino)-1,3-thiazole-4-carboxamide], 9100 nM.
Regarding `Cc1c(NC(=O)c2csc(Nc3ccc(Cl)cc3)n2)noc1C(C)(C)C` [Example 29, N-(5-tert-Butyl-4-methyl-1,2-oxazol-3-yl)-2-[(4-chlorophenyl)amino]-1,3-thiazole-4-carboxamide], the IC50 was found to be 9680 nM.
For `N#Cc1c[nH]nc1NC(=O)c1csc(Nc2ccccc2)n1` [Example 30, N-(4-Cyano-1H-pyrazol-3-yl)-2-(phenylamino)-1,3-thiazole-4-carboxamide] the value was 12000 nM; for `O=C(Nc1cnn(C2COC2)c1)c1csc(Nc2ccc(Cl)cc2)n1` [Example 31, 2-[(4-Chlorophenyl)amino]-N-[1-(oxetan-3-yl)-1H-pyrazol-4-yl]-1,3-thiazole-4-carboxamide], 15100 nM; for `CC(C)(C)c1cc(NC(=O)c2csc(NC3CC3)n2)no1` [Example 32, N-(5-tert-Butyl-1,2-oxazol-3-yl)-2-(cyclopropylamino)-1,3-thiazole-4-carboxamide], 14700 nM.
Turning to `Cc1ccc(Nc2nc(C(=O)Nc3cc(C(C)(C)C)on3)cs2)nc1` [Example 34, N-(5-tert-Butyl-1,2-oxazol-3-yl)-2-[(5-methylpyridin-2-yl)amino]-1,3-thiazole-4-carboxamide], the concentration for half-maximal inhibition (IC50) was 41.8 nM.
In turn, `CC(C)(C)c1cc(NC(=O)c2csc(Nc3ccc(Cl)cn3)n2)no1` [Example 35, N-(5-tert-Butyl-1,2-oxazol-3-yl)-2-[(5-chloropyridin-2-yl)amino]-1,3-thiazole-4-carboxamide] had an IC50 of 49.6 nM.
For `CC(C)(C)c1cc(NC(=O)c2csc(Nc3cc(Cl)ccn3)n2)no1` [Example 36, N-(5-tert-Butyl-1,2-oxazol-3-yl)-2-[(4-chloropyridin-2-yl)amino]-1,3-thiazole-4-carboxamide] the value was 105 nM; for `CC(C)(C)c1cc(NC(=O)c2csc(NCCc3ccccc3)n2)no1` [Example 37, N-(5-tert-Butyl-1,2-oxazol-3-yl)-2-[(2-phenylethyl)amino]-1,3-thiazole-4-carboxamide], 119 nM; for `CC(C)(C)c1cc(NC(=O)c2csc(Nc3ccc4c(c3)CCC4)n2)no1` [Example 38, N-(5-tert-Butyl-1,2-oxazol-3-yl)-2-(2,3-dihydro-1H-inden-5-ylamino)-1,3-thiazole-4-carboxamide], 160 nM.
Molecule `CC(C)(C)c1cc(NC(=O)c2csc(Nc3ccc(Cl)c(F)c3)n2)no1` [Example 39, N-(5-tert-Butyl-1,2-oxazol-3-yl)-2-[(4-chloro-3-fluorophenyl)amino]-1,3-thiazole-4-carboxamide] showed an IC50 of 183 nM.
As for `CC(C)(C)c1cc(NC(=O)c2csc(Nc3ccc4ccoc4c3)n2)no1` [Example 40, 2-(1-Benzofuran-6-ylamino)-N-(5-tert-butyl-1,2-oxazol-3-yl)-1,3-thiazole-4-carboxamide], the figure is 350 nM.
For `Cc1ccc(Nc2nc(C(=O)Nc3cc(C(C)(C)C)on3)cs2)c(F)c1` [Example 41, N-(5-tert-Butyl-1,2-oxazol-3-yl)-2-[(2-fluoro-4-methylphenyl)amino]-1,3-thiazole-4-carboxamide], it took 426 nM to reach half-maximal inhibition (IC50).
For the molecule `CC(C)(C)c1cc(NC(=O)c2csc(NCc3cccc(F)c3)n2)no1` [Example 42, N-(5-tert-Butyl-1,2-oxazol-3-yl)-2-[(3-fluorobenzyl)amino]-1,3-thiazole-4-carboxamide], the IC50 is 508 nM.
For `Cc1cccc(Nc2nc(C(=O)Nc3cc(C(C)(C)C)on3)cs2)c1` [Example 43, N-(5-tert-Butyl-1,2-oxazol-3-yl)-2-[(3-methylphenyl)amino]-1,3-thiazole-4-carboxamide] the value was 512 nM.
As for `CC(C)(C)c1cc(NC(=O)c2csc(NCc3ccco3)n2)no1` [Example 44, N-(5-tert-Butyl-1,2-oxazol-3-yl)-2-[(furan-2-ylmethyl)amino]-1,3-thiazole-4-carboxamide], the figure is 606 nM; as for `CC(C)(C)c1cc(NC(=O)c2csc(Nc3ccc(F)c(F)c3)n2)no1` [Example 45, N-(5-tert-Butyl-1,2-oxazol-3-yl)-2-[(3,4-difluorophenyl)amino]-1,3-thiazole-4-carboxamide], 815 nM.
`CC(C)(C)c1cc(NC(=O)c2csc(Nc3ccc(F)c(Cl)c3)n2)no1` [Example 46, N-(5-tert-Butyl-1,2-oxazol-3-yl)-2-[(3-chloro-4-fluorophenyl)amino]-1,3-thiazole-4-carboxamide] registered a 50% inhibitory concentration (IC50) of 1200 nM.
For `CC(C)(C)c1cc(NC(=O)c2csc(Nc3ccccc3C(=O)Nc3cc4ccccc4cn3)n2)no1` [Example 47, N-(5-tert-Butyl-1,2-oxazol-3-yl)-2-{[2-(isoquinolin-3-ylcarbamoyl)phenyl]amino}-1,3-thiazole-4-carboxamide] the value was 1300 nM; for `CC(C)(C)c1cc(NC(=O)c2csc(Nc3cccc(Cl)c3)n2)no1` [Example 48, N-(5-tert-Butyl-1,2-oxazol-3-yl)-2-[(3-chlorophenyl)amino]-1,3-thiazole-4-carboxamide], 2990 nM.
